pKi: −log10 of the molar value. Counter-ions that a name gives are not always drawn.
Assays:
h-5-HT6 receptor = target: T1, h-5-HT6 receptor (Homo sapiens, UniProt P50406); assay: 5-HT6 receptor binding assay (displacement of [3H]-LSD); conditions: cloned human 5-HT6 receptor, HEK293 membranes, 1 nM [3H]-LSD
T1 construct: expressed in transfected cells
Experimental: Displacement of radioligands binding to the following cloned human receptors
1. Preparation of Membranes by Ultrasonic Treatment and Differential Centrifugation
Cells from stable clonal cell lines expressing the corresponding receptor (5-HT6, α1-adrenergic, dopamine D2 or histamine H1 receptors) were washed with PBS (w/o Ca^++, Mg^++) and harvested in PBS with 0.02% EDTA. The cells were collected by centrifugation at 500 g for 10 min. at 4° C., washed with PBS and centrifuged (500 g, 10 min. 4° C.). The pellets were stored at −80° C. until use. For membrane preparation, the thawed cell pellet was resuspended in ice-cold sucrose buffer (0.25 M sucrose, 10 mM Hepes (pH 7.4), 1 mM Phenylmethylsulfonyl fluoride (PMSF) in DMSO, 5 μg/ml Pepstatin-A, 3 mM EDTA, 0.025% Bacitracin) and homogenized with a Branson Sonifier W-250 (Settings: Timer 4; Output Control 3; Duty Cycle constant; 2 to 3 cycles). Cell disruption was checked with the aid of a microscope. Remaining unbroken cells were pelleted at 1.000 g for 10 min. at 4° C. The sucrose buffer supernatant was then centrifuged at 60.000 g for 1 h at 4° C. (Beckman Ultrazentrifuge XL 80). The pellet was resuspended in 30 ml ice-cold Tris buffer (20 mM TRIS (pH 7.4), 5 μg/ml Pepstatin A, 0.1 mM PMSF, 3 mM EDTA) by pipetting through a 10 ml serological pipet and centrifuged for 1 h at 4° C. at 60.000 g. A final resuspension was performed in a small volume of ice-cold Tris buffer (see above) by pressing through a serological pipet followed by ultrasonic treatment with a Branson Sonifier W-250 (Settings: Timer 1; Output Control 3; Duty Cycle constant; 1 cycle). Protein concentration was determined (BCA-Kit; Pierce) and aliquots stored at −80° C. or in liquid nitrogen for long-term storage.
2. Receptor Binding Experiments
All receptor binding experiments were carried out in the corresponding assay buffer in a total volume of 200 μl in the presence of various concentrations of test compound (10^−5 M to 10^−9 M, tenfold serial dilution, duplicate determinations). The assays were terminated by filtration on polyethylenimine (PEI 0.1% or 0.3%) presoaked Packard Unifilter Plates (GF/C or GF/B) with a Tomtec MachIII U 96 well-plate harvester. After the plates had been dried for 2 h at 55° C. in a drying chamber scintillation cocktail (BetaPlate Scint; PerkinElmer) was added. Radioactivity was measured in a Microbeta Trilux two hours after the addition of the scintillation mixture. Data derived from liquid scintillation counting were analysed by iterative non-linear regression analysis with the use of the Statistical Analysis System (SAS): a program similar to “LIGAND” as described by Munson and Rodbard (Analytical Biochemistry 107, 220-239 (1980).
a) 5-HT6 Receptor Binding Assay
HEK293 cells stably expressing the h-5-HT6 receptor (NCBI Reference Sequence XM 001435) were cultured in RPMI1640 medium supplemented with 25 mM HEPES, 10% fetal calf serum and 1-2 mM glutamine. The membrane preparation was performed as described in section 1. […] Non-specific binding was defined with 1 μM methiothepin. The binding reaction was carried out for 3.5 h at room temperature. During the incubation, the plates were shaken on a plate shaker at 100 rpm and terminated by filtration on Packard Unifilter GF/C (0.1% PEI) plates, followed by 2 wash cycles with ice-cold 50 mM Tris-HCl, 5 mM CaCl2.
Data derived from liquid scintillation counting were analyzed by iterative non-linear regression analysis with the use of the Statistical Analysis System (SAS): a program similar to “LIGAND” as described by Munson and Rodbard (Anal. Biochem. 1980, 107, 220-239). Fitting was performed according to formulae described by Feldman (Anal. Biochem. 1972, 48, 317-338). IC50, nH and Ki values were expressed as geometrical mean.

[1] = Metabolic stability in human liver microsomes (microsomal clearance); format: in vitro ADME; conditions: pH 7.4; human liver microsomes 0.25 mg protein/mL, 0.5 μM compound, NADPH, 37° C.; read-out: mClint
Experimental: Samples of the tested compounds (0.5 μM) were preincubated together with human liver microsomes (0.25 mg of microsomal protein/mL) in 0.05 M potassium phosphate buffer of pH 7.4 in microtiter plates at 37° C. for 5 minutes. The reaction was started by adding NADPH (1.0 mM). After 0, 5, 10, 15, 20 and 30 minutes, an aliquot was removed, the reaction was cooled and stopped by adding twice the amount of quench solution consisting of acetonitrile/methanol 1:1, and containing 0.2 μM carbutamide as internal standard. The samples were frozen until analyzed. The remaining concentration of undegraded test substance was determined by liquid chromatography-tandem mass spectrometry (LC-MS/MS). The half-life (t1/2) was determined from the gradient of the ratio of the signal of (test substance/internal standard)/unit time plot, allowing the calculation of the half-life of the test substance, assuming first order kinetics, from the decrease in the concentration of the compound with time. The microsomal clearance (mClint) was calculated as follows: mClint=((ln(2)/t 1/2)/Microsomal Protein Concentration (mg/ml))*1000, leading to the unit of μL/min/mg.

T1 sequence (P50406 whole entry): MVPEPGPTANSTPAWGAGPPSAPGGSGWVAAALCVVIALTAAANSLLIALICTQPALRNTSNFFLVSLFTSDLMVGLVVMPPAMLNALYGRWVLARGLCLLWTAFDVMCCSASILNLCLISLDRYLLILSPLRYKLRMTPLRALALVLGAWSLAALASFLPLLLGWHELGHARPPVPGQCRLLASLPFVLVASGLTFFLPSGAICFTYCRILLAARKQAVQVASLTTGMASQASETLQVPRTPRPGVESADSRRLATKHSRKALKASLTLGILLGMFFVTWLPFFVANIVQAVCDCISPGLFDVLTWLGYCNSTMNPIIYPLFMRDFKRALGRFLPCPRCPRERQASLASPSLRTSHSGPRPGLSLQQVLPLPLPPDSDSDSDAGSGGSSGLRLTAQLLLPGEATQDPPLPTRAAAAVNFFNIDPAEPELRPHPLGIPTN

Row | pKi (h-5-HT6 receptor) | microsomal CLint at 0.5 μM [1] [µL/min/mg] | Structure (SMILES)
1 | > 8.00 | < 30 | O=C(O)C1CCN(c2cccc3cc(S(=O)(=O)c4cccc(C(F)(F)F)c4)cnc23)CC1 [Example 3, 1-[3-(3-Trifluoromethyl-benzenesulfonyl)-quinolin-8-yl]-piperidine-4-carboxylic Acid]
2 | > 8.00 | 60 to 120 | O=S(=O)(c1cccc(C(F)(F)F)c1)c1cnc2c(N3CCC[C@H](O)C3)cccc2c1 [Example 4, (S)-1-[3-(3-Trifluoromethyl-benzenesulfonyl)-quinolin-8-yl]-piperidin-3-ol Hydrochloride]
3 | 7.00 to 8.00 | 60 to 120 | COc1ccccc1S(=O)(=O)c1cnc2c(N3CC(O)C3)cccc2c1 [Example 39, 1-[3-(2-Methoxyphenyl)sulfonyl-8-quinolyl]azetidin-3-ol]
4 | 7.00 to 8.00 | < 30 | O=C(O)C1CCCN(c2cccc3cc(S(=O)(=O)c4cccc(C(F)(F)F)c4)cnc23)C1 (centres unmarked) [Example 6, 1-[3-(3-Trifluoromethyl-benzenesulfonyl)-quinolin-8-yl]-piperidine-3-carboxylic Acid]
5 | 7.00 to 8.00 | 30 to 60 | Cc1ccc(O)c(S(=O)(=O)c2cnc3c(N4CCC(O)CC4)cccc3c2)c1 [Example 28, 1-[3-(2-Hydroxy-5-methyl-phenyl)sulfonyl-8-quinolyl]piperidin-4-ol]
6 | 7.00 to 8.00 | < 30 | O=C(O)C1CCN(c2cccc3cc(S(=O)(=O)c4cccc(OC(F)F)c4)cnc23)CC1 [Example 31, 1-[3-[3-(Difluoromethoxy)phenyl]sulfonyl-8-quinolyl]piperidine-4-carboxylic Acid]
7 | > 8.00 | 60 to 120 | COc1cccc(S(=O)(=O)c2cnc3c(N4CCC(O)CC4)cccc3c2)c1 [Example 13, 1-[3-(3-Methoxyphenyl)sulfonyl-8-quinolyl]piperidin-4-ol]
8 | > 8.00 | < 30 | O=S(=O)(c1ccccc1)c1cnc2c(N3C[C@@H](O)[C@@H](O)C3)cccc2c1 [Example 42, (3R,4S)-1-[3-(Benzenesulfonyl)-8-quinolyl]pyrrolidine-3,4-diol]
9 | > 8.00 | < 30 | O=S(=O)(c1ccccc1)c1cnc2c(N3C[C@@H](O)[C@H](O)C3)cccc2c1 [Example 45, (3R,4R)-1-[3-(Benzenesulfonyl)-8-quinolyl]pyrrolidine-3,4-diol]
10 | 7.00 to 8.00 | < 30 | O=C(O)C1CN(c2cccc3cc(S(=O)(=O)c4cccc(C(F)(F)F)c4)cnc23)C1 [Example 44, 1-[3-[3-(Trifluoromethyl)phenyl]sulfonyl-8-quinolyl]azetidine-3-carboxylic Acid]
11 | 7.00 to 8.00 | 30 to 60 | O=S(=O)(c1cccc(N2CCC(O)CC2)c1)c1cnc2c(N3CCC(O)CC3)cccc2c1 [Example 16, 1-[3-[[8-(4-Hydroxy-1-piperidyl)-3-quinolyl]sulfonyl]phenyl]piperidin-4-ol]
12 | > 8.00 | < 30 | O=S(=O)(c1ccccc1)c1cnc2c(N3C[C@H](O)C[C@H](O)C3)cccc2c1 [Example 36, (3R,5S)-1-[3-(Benzenesulfonyl)-8-quinolyl]piperidine-3,5-diol]
13 | 7.00 to 8.00 | < 30 | O=C(O)C1CCN(c2cccc3cc(S(=O)(=O)c4ccccc4)cnc23)CC1 [Example 37, 1-[3-(Benzenesulfonyl)-8-quinolyl]piperidine-4-carboxylic Acid]
14 | > 8.00 | 30 to 60 | O=S(=O)(c1ccccc1)c1cnc2c(N3CCC[C@@H](O)C3)cccc2c1 [Example 23, (3R)-1-[3-(Benzenesulfonyl)-8-quinolyl]piperidin-3-ol]
15 | > 8.00 | 30 to 60 | O=S(=O)(c1cccc(C(F)(F)F)c1)c1cnc2c(N3CCC(O)CC3)cccc2c1 [Example 1, 1-[3-(3-Trifluoromethyl-benzenesulfonyl)-quinolin-8-yl]-piperidin-4-ol]
16 | 7.00 to 8.00 | < 30 | O=C(O)[C@@H]1CCN(c2cccc3cc(S(=O)(=O)c4cccc(C(F)(F)F)c4)cnc23)C1 [Example 12, (3R)-1-[3-[3-(Trifluoromethyl)phenyl]sulfonyl-8-quinolyl]pyrrolidine-3-carboxylic Acid]
17 | > 8.00 | < 30 | O=S(=O)(c1cccc(F)c1)c1cnc2c(N3CCC(O)CC3)cccc2c1 [Example 9, 1-[3-(3-Fluorophenyl)sulfonyl-8-quinolyl]piperidin-4-ol]
18 | > 8.00 | < 30 | O=S(=O)(c1ccccc1)c1cnc2c(N3CC[C@@H](O)[C@@H](O)C3)cccc2c1 [Example 41, (3S,4R)-1-[3-(Benzenesulfonyl)-8-quinolyl]piperidine-3,4-diol]
19 | > 8.00 | 30 to 60 | O=S(=O)(c1cccc(F)c1)c1cnc2c(N3CC[C@@H](O)C3)cccc2c1 [Example 33, (3R)-1-[3-(3-Fluorophenyl)sulfonyl-8-quinolyl]pyrrolidin-3-ol]
20 | > 8.00 | 60 to 120 | O=S(=O)(c1cccc(C(F)(F)F)c1)c1cnc2c(N3CCC(O)C3)cccc2c1 (centres unmarked) [Example 2, 1-[3-(3-Trifluoromethyl-benzenesulfonyl)-quinolin-8-yl]-pyrrolidin-3-ol]
21 | > 8.00 | 30 to 60 | O=S(=O)(c1cccc(C(F)(F)F)c1)c1cnc2c(N3CC(O)C3)cccc2c1 [Example 8, 1-[3-[3-(Trifluoromethyl)phenyl]sulfonyl-8-quinolyl]azetidin-3-ol]
22 | > 8.00 | 60 to 120 | CC1(O)CCN(c2cccc3cc(S(=O)(=O)c4cccc(C(F)(F)F)c4)cnc23)CC1 [Example 7, 4-Methyl-1-[3-[3-(trifluoromethyl)phenyl]sulfonyl-8-quinolyl]piperidin-4-ol Hydrochloride]
23 | 7.00 to 8.00 | 30 to 60 | O=S(=O)(c1cccc(C(F)(F)F)c1)c1cnc2c(N3CC[C@@H](O)C3)cccc2c1 [Example 19, (3R)-1-[3-[3-(Trifluoromethyl)phenyl]sulfonyl-8-quinolyl]pyrrolidin-3-ol]
24 | > 8.00 | 30 to 60 | O=S(=O)(c1cccc(F)c1)c1cnc2c(N3CCC[C@H](O)C3)cccc2c1 [Example 27, (3S)-1-[3-(3-Fluorophenyl)sulfonyl-8-quinolyl]piperidin-3-ol]
25 | > 8.00 | 60 to 120 | O=S(=O)(c1ccccc1)c1cnc2c(N3CC[C@H](O)C3)cccc2c1 [Example 30, (3S)-1-[3-(Benzenesulfonyl)-8-quinolyl]pyrrolidin-3-ol]

— patent US10160744B2, “Quinoline compounds suitable for treating disorders that respond to the modulation of the serotonin 5-HT6 receptor” (Abbvie Deutschland GmbH & Co. KG, priority 2016, dated 2018)
